ChEMBL document CHEMBL1201862, “PubChem BioAssay data set” (2004)
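Each compound was tested at five concentrations against cells in 96-well plates for 48 hours. Here, GI50 denotes the concentration required for 50% inhibition of growth.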 Calls of active or inactive are those of the source. Cut-off read from the data, not from the text of the source: active = GI50 up to about 1.1 µM and inactive = higher.

What was measured:
Assay in all cases: DTP human tumour cell line panel, 48 h
[1] = tested on: BT-549
[2] = tested on: CAKI-1
[3] = tested on: DU-145
[4] = tested on: LOX IMVI
[5] = tested on: MCF7
[6] = tested on: MDA-MB-435
[7] = tested on: MDA-N
[8] = tested on: Malme-3M
[9] = tested on: NCI-H23
[10] = tested on: OVCAR-5
[11] = tested on: PC-3
[12] = tested on: RPMI-8226
[13] = tested on: RXF 393
[14] = tested on: SF-539
[15] = tested on: SK-MEL-5
[16] = tested on: SN12C
[17] = tested on: SW-620
[18] = tested on: TK-10
[19] = tested on: U-251
[20] = tested on: UACC-257

O=S(=O)(O)c1cc(O)c(/N=N\C2S(=O)(=O)OCCOS2(=O)=O)c2ccccc12
GI50 [1]: > 100 µM (inactive)
GI50 [2]: > 100 µM (inactive)
GI50 [3]: > 100 µM (inactive)
GI50 [4]: 61.9 µM (inactive)
GI50 [5]: > 100 µM (inactive)
GI50 [6]: > 100 µM (inactive)
GI50 [7]: > 100 µM (inactive)
GI50 [8]: > 100 µM (inactive)
GI50 [9]: > 100 µM (inactive)
GI50 [10]: > 100 µM (inactive)
GI50 [11]: > 100 µM (inactive)
GI50 [12]: > 100 µM (inactive)
GI50 [13]: > 100 µM (inactive)
GI50 [14]: 54.3 µM (inactive)
GI50 [15]: > 100 µM (inactive)
GI50 [16]: > 100 µM (inactive)
GI50 [17]: > 100 µM (inactive)
GI50 [18]: > 100 µM (inactive)
GI50 [19]: 71.8 µM (inactive)
GI50 [20]: > 100 µM (inactive)

CCOC(=O)NC(Nc1ccc(F)c(F)c1)(C(=O)OCC)C(F)(F)F (stereo not given)
GI50 [1]: > 100 µM (inactive)
GI50 [2]: > 100 µM (inactive)
GI50 [3]: > 62.8 µM (inactive)
GI50 [4]: 0.361 µM (active)
GI50 [5]: > 100 µM (inactive)
GI50 [6]: 5.69 µM (inactive)
GI50 [7]: > 100 µM (inactive)
GI50 [8]: > 100 µM (inactive)
GI50 [9]: > 100 µM (inactive)
GI50 [10]: > 100 µM (inactive)
GI50 [11]: > 80.5 µM (inactive)
GI50 [12]: > 100 µM (inactive)
GI50 [13]: > 100 µM (inactive)
GI50 [14]: > 100 µM (inactive)
GI50 [15]: 13.8 µM (inactive)
GI50 [16]: > 100 µM (inactive)
GI50 [17]: 17.4 µM (inactive)
GI50 [18]: > 100 µM (inactive)
GI50 [19]: > 100 µM (inactive)
GI50 [20]: > 100 µM (inactive)

Nc1ccc(Oc2ccc(C34CC5CC(C3)CC(c3ccc(Oc6ccc(N)cc6)cc3)(C5)C4)cc2)cc1
GI50 [1]: 8.69 µM (inactive)
GI50 [2]: 13.5 µM (inactive)
GI50 [3]: 7.43 µM (inactive)
GI50 [4]: 6.25 µM (inactive)
GI50 [5]: 4.81 µM (inactive)
GI50 [6]: 7.53 µM (inactive)
GI50 [7]: 8.71 µM (inactive)
GI50 [8]: 11.6 µM (inactive)
GI50 [9]: 7.8 µM (inactive)
GI50 [10]: 18.6 µM (inactive)
GI50 [11]: 6.28 µM (inactive)
GI50 [12]: 4.14 µM (inactive)
GI50 [13]: 12.8 µM (inactive)
GI50 [14]: 13.7 µM (inactive)
GI50 [15]: 12.6 µM (inactive)
GI50 [16]: 12.5 µM (inactive)
GI50 [17]: > 25.5 µM (inactive)
GI50 [18]: 10.3 µM (inactive)
GI50 [19]: 5.43 µM (inactive)
GI50 [20]: 9.86 µM (inactive)

CC(C)(C)C1=CC(=C(c2ccc(-c3c4nc(c(-c5ccc(C(=C6C=C(C(C)(C)C)C(=O)C(C(C)(C)C)=C6)c6cc(C(C)(C)C)c(O)c(C(C)(C)C)c6)cc5)c5ccc([nH]5)c(-c5ccc(C(=C6C=C(C(C)(C)C)C(=O)C(C(C)(C)C)=C6)c6cc(C(C)(C)C)c(O)c(C(C)(C)C)c6)cc5)c5nc(c(-c6ccc(C(=C7C=C(C(C)(C)C)C(=O)C(C(C)(C)C)=C7)c7cc(C(C)(C)C)c(O)c(C(C)(C)C)c7)cc6)c6ccc3[nH]6)C=C5)C=C4)cc2)c2cc(C(C)(C)C)c(O)c(C(C)(C)C)c2)C=C(C(C)(C)C)C1=O
GI50 [1]: > 100 µM (inactive)
GI50 [2]: > 100 µM (inactive)
GI50 [3]: > 100 µM (inactive)
GI50 [4]: > 100 µM (inactive)
GI50 [5]: > 100 µM (inactive)
GI50 [6]: > 100 µM (inactive)
GI50 [7]: > 100 µM (inactive)
GI50 [8]: > 100 µM (inactive)
GI50 [9]: > 100 µM (inactive)
GI50 [10]: > 100 µM (inactive)
GI50 [11]: > 100 µM (inactive)
GI50 [12]: > 100 µM (inactive)
GI50 [13]: > 70.8 µM (inactive)
GI50 [14]: > 100 µM (inactive)
GI50 [15]: > 100 µM (inactive)
GI50 [16]: > 100 µM (inactive)
GI50 [17]: > 100 µM (inactive)
GI50 [18]: > 100 µM (inactive)
GI50 [19]: > 100 µM (inactive)
GI50 [20]: > 100 µM (inactive)

CCCCCCCCCCCCCCCCOP(=O)([O-])OCC[N+](C)(C)C [MILTEFOSINE]
GI50 [1]: 5.35 µM (inactive)
GI50 [2]: 10.3 µM (inactive)
GI50 [3]: 19.4 µM (inactive)
GI50 [4]: 21.5 µM (inactive)
GI50 [5]: 24.9 µM (inactive)
GI50 [6]: 17.9 µM (inactive)
GI50 [7]: 25.1 µM (inactive)
GI50 [8]: 21.8 µM (inactive)
GI50 [9]: 33.3 µM (inactive)
GI50 [10]: 8.17 µM (inactive)
GI50 [11]: 1.56 µM (inactive)
GI50 [12]: 6.1 µM (inactive)
GI50 [13]: 5.9 µM (inactive)
GI50 [14]: 30.5 µM (inactive)
GI50 [15]: 23.8 µM (inactive)
GI50 [16]: 16.1 µM (inactive)
GI50 [17]: 20.8 µM (inactive)
GI50 [18]: 2.1 µM (inactive)
GI50 [19]: 15.3 µM (inactive)
GI50 [20]: 30.6 µM (inactive)

NC(=O)NNCc1c(-c2ccccc2)no[n+]1[O-]
GI50 [1]: > 100 µM (inactive)
GI50 [2]: > 100 µM (inactive)
GI50 [3]: > 100 µM (inactive)
GI50 [4]: > 100 µM (inactive)
GI50 [5]: > 100 µM (inactive)
GI50 [6]: > 100 µM (inactive)
GI50 [7]: > 100 µM (inactive)
GI50 [8]: > 100 µM (inactive)
GI50 [9]: > 100 µM (inactive)
GI50 [10]: > 100 µM (inactive)
GI50 [11]: > 100 µM (inactive)
GI50 [12]: > 100 µM (inactive)
GI50 [13]: > 100 µM (inactive)
GI50 [14]: > 100 µM (inactive)
GI50 [15]: > 100 µM (inactive)
GI50 [16]: > 100 µM (inactive)
GI50 [17]: > 100 µM (inactive)
GI50 [18]: > 100 µM (inactive)
GI50 [19]: > 100 µM (inactive)
GI50 [20]: > 100 µM (inactive)

CC(C)(C)N/C(N)=N/C#N
GI50 [1]: > 100 µM (inactive)
GI50 [2]: > 100 µM (inactive)
GI50 [3]: > 100 µM (inactive)
GI50 [4]: > 100 µM (inactive)
GI50 [5]: > 100 µM (inactive)
GI50 [6]: > 100 µM (inactive)
GI50 [7]: > 100 µM (inactive)
GI50 [8]: > 100 µM (inactive)
GI50 [9]: > 100 µM (inactive)
GI50 [10]: > 100 µM (inactive)
GI50 [11]: > 100 µM (inactive)
GI50 [12]: > 100 µM (inactive)
GI50 [13]: > 100 µM (inactive)
GI50 [14]: > 100 µM (inactive)
GI50 [15]: > 100 µM (inactive)
GI50 [16]: > 100 µM (inactive)
GI50 [17]: > 100 µM (inactive)
GI50 [18]: > 100 µM (inactive)
GI50 [19]: > 100 µM (inactive)
GI50 [20]: > 100 µM (inactive)

CCCC(=O)Nc1cc(/C=C/C(=O)N2C[C@H]3C[C@@]34C2=CC(=O)c2[nH]cc(C)c24)n(C)c1
GI50 [1]: < 0.0025 µM (active)
GI50 [2]: < 0.0025 µM (active)
GI50 [3]: < 0.0025 µM (active)
GI50 [4]: < 0.0025 µM (active)
GI50 [5]: < 0.0025 µM (active)
GI50 [6]: < 0.0025 µM (active)
GI50 [7]: < 0.0025 µM (active)
GI50 [8]: < 0.0025 µM (active)
GI50 [9]: < 0.0025 µM (active)
GI50 [10]: < 0.0025 µM (active)
GI50 [11]: < 0.0025 µM (active)
GI50 [12]: 0.0161 µM (active)
GI50 [13]: < 0.0025 µM (active)
GI50 [14]: < 0.0025 µM (active)
GI50 [15]: < 0.0025 µM (active)
GI50 [16]: < 0.0025 µM (active)
GI50 [17]: < 0.0025 µM (active)
GI50 [18]: < 0.0025 µM (active)
GI50 [19]: < 0.0025 µM (active)
GI50 [20]: < 0.0025 µM (active)

COC(=O)/C=C(/C=C1/C(C#N)=C(N)N(c2ccc(Cl)cc2)C1(C)/C(=C\C(=O)OC)C(=O)OC)C(=O)OC (stereo not given)
GI50 [1]: 15.7 µM (inactive)
GI50 [2]: 22.8 µM (inactive)
GI50 [3]: 35.5 µM (inactive)
GI50 [4]: 17.1 µM (inactive)
GI50 [5]: 20.7 µM (inactive)
GI50 [6]: 18.5 µM (inactive)
GI50 [7]: 16.2 µM (inactive)
GI50 [8]: 25.1 µM (inactive)
GI50 [9]: 19.2 µM (inactive)
GI50 [10]: 21.3 µM (inactive)
GI50 [11]: 12.9 µM (inactive)
GI50 [12]: 25.1 µM (inactive)
GI50 [13]: 19.2 µM (inactive)
GI50 [14]: 15.4 µM (inactive)
GI50 [15]: 15.1 µM (inactive)
GI50 [16]: 21.6 µM (inactive)
GI50 [17]: 15.9 µM (inactive)
GI50 [18]: 29.4 µM (inactive)
GI50 [19]: 26.1 µM (inactive)
GI50 [20]: 18.9 µM (inactive)
